Reference: PMC10765884, “MC180295 is a highly potent and selective CDK9 inhibitor with preclinical in vitro and in vivo efficacy in cancer” (Clinical Epigenetics, 2024)

Legend:
CT26.CL25 cells = experiment: CT26.CL25 colon cancer model in B6 mice with/without CD8 depletion; type: in vivo; conditions: CT26.CL25 s.c. in B6 mice, MC180295 20 mg/kg i.p. q.o.d., DAC 0.5 mg/kg i.p. daily
Procedure: Fig. 5 Survival and antitumor effects of MC180295, DAC, or their combination, with/without CD8 + T cells. A 20 mg/kg MC180295 was administered (i.p.) q.o.d. 0.5 mg/kg DAC was administered (i.p.) daily. Mouse survival in days. B Survival of B6 mice, after CD8 depletion, using an anti-CD8 antibody. 20 mg/kg MC180295 was administered (i.p.) q.o.d. 0.5 mg/kg DAC was administered (i.p.) daily. C Antitumor effects of MC180295 with and without CD8 depletion, using an anti-CD8 antibody. B6 mice were inoculated (s.c.) with 5 × 10^5 CT26.CL25 cells. Eight days later, when tumors were palpable, 20 mg/kg MC180295 was administered (i.p.) q.o.d. 0.5 mg/kg DAC was administered (i.p.) daily. Tumor sizes were measured using a caliper and calculated over vehicle. D Antitumor effects of DAC, with and without CD8 depletion, using an anti-CD8 antibody. B6 mice were inoculated (s.c.) with 5 × 10^5 CT26.CL25 cells. Eight days later, when tumors were palpable, 20 mg/kg MC180295 was administered (i.p.) q.o.d. 0.5 mg/kg DAC was administered (i.p.) daily. Tumor sizes were measured using a caliper and calculated over vehicle. E Antitumor effects of DAC + MC180295, with and without CD8 depletion, using an anti-CD8 antibody. B6 mice were inoculated (s.c.) with 5 × 10^5 CT26.CL25 cells. Eight days later, when tumors were palpable, 20 mg/kg MC180295 was administered (i.p.) q.o.d. 0.5 mg/kg DAC was administered (i.p.) daily. Tumor sizes were measured using a caliper and calculated over vehicle. Significances were calculated using log-rank (Mantel-Cox) or Student's T tests. Data shown as means ± SEMs
For the s.c. SW48 model, 2 × 10^6 cells were injected into the flanks of randomly assigned, gender-matched 8–10-week-old NSG mice. 20 mg/kg MC180379, MC180380, or MC180295 was injected (i.p.), every other day, when the tumors were palpable, 11 days after engraftment, until endpoints were met. Mice were sacrificed before tumor volumes exceeded 400 mm^2 (endpoint for this model). For the s.c. HT29 model, 2 × 10^6 cells were injected into the flanks of randomly assigned, gender-matched, 8–10-week-old NSG mice. […]

[1] = Drug toxicity: body weights and complete blood counts in tumor-bearing mice; type: in vivo; conditions: MV4-11 model, NSG mice, Fig. S4D
MV4-11-luc cells = experiment: MV4-11-luc AML model in NSG mice; conditions: MV4-11-luc in NSG mice, 0.5 mg/kg DAC i.p. daily alone
Procedure: E NSG mice were inoculated (i.p.) with 5 × 10^5 MV4-11-luc cells. Four days later, when substantial tumor burden was evident by bioluminescence imaging, MC180379, MC180380, or vehicle were administered (i.p.) q.o.d at 20 mg/kg. Luciferase expression was quantified and calculated. F Mouse survival in days. […] Significances were calculated using log-rank (Mantel-Cox) or Student’s t tests.
0.5 mg/kg DAC was administered (i.p.) daily. […] B Mouse survival in days. 20 mg/kg MC180295 was administered (i.p.) q.o.d. 0.5 mg/kg DAC was administered (i.p.) daily. C NSG mice were inoculated (i.p.) with 5 × 10^5 MV4-11-luc cells. Four days later, when substantial tumor burden was evident by bioluminescence imaging, MC180295 (20 mg/kg) or vehicle were administered (i.p.) every other day. 0.5 mg/kg DAC was administered (i.p.) daily. Luciferase expression was quantified and calculated. […] 0.5 mg/kg DAC was administered (i.p.) daily. Mouse survival shown in days. Significances were calculated using log-rank (Mantel-Cox) or Student's t tests. Data are shown as means ± SEMs. ***p < 0.001
Both female and male NOD.Cg-Prkdcscid Il2rgtm1Wjl/SzJ (NSG) mice were used for the experiments. Age- and gender-matched mice were randomly assigned to each group. 8–10-week-old NSG mice were tail vein-injected with 5 × 10^5 MV4-11-luc cells. […] Natural death or accumulation of ascites fluid were used as endpoints.

CDK9 = target: T1, CDK9 (Homo sapiens, UniProt P50750); design: method as in PMID 26083714; conditions: cited from earlier work
T1 construct: purchased Reaction Biology Corp
T1 sequence (P50750 whole entry): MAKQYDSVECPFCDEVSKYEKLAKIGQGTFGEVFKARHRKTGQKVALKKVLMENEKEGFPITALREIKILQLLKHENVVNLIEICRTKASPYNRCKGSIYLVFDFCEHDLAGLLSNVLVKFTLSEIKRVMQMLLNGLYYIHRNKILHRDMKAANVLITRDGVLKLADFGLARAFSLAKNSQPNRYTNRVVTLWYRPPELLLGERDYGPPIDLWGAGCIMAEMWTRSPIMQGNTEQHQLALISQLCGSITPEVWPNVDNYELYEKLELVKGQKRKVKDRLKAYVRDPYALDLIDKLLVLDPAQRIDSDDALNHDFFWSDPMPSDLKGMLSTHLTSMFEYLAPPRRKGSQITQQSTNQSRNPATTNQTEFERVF
T1 sequence (O60563 whole entry partner): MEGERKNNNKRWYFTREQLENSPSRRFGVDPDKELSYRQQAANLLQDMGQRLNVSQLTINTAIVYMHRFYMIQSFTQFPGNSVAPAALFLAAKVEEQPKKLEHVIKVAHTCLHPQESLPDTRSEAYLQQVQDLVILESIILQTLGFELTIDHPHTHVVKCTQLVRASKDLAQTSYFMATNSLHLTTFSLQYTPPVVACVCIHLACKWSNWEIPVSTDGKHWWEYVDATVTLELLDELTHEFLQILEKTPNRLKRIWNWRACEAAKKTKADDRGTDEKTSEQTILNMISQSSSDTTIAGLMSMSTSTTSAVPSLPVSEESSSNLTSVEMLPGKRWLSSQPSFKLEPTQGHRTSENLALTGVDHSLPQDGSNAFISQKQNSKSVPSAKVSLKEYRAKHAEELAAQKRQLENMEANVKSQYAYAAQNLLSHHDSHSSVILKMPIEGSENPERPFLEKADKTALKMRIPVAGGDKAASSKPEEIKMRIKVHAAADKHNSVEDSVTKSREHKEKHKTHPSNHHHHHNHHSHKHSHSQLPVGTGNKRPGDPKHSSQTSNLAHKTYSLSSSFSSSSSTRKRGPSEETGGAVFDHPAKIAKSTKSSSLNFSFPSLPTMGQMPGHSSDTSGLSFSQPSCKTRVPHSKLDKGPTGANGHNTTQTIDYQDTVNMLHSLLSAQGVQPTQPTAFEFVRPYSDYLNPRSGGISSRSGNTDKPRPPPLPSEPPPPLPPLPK

| SMILES | tumor size (CT26.CL25 cells) | body weights [1] | survival (MV4-11-luc cells) | tumor suppression (luciferase) (MV4-11-luc cells) | selectivity toward CDK9, compared to CDKs 1, 2, 4, 7, and 8 (CDK9) |
| --- | --- | --- | --- | --- | --- |
| Nc1ncn([C@H]2C[C@H](O)[C@@H](CO)O2)c(=O)n1 [DAC, decitabine, reference compound] | significantly decrease tumor size, in a CD8 + T cell-dependent manner | did not affect NSG mouse body weights | did not show consistent tumor suppression or a survival benefit | did not show consistent tumor suppression |  |
| NC1CCC(Nc2cc(-c3cccc(NCc4cccc(F)c4)n3)c(Cl)cn2)CC1 (centres unmarked) [iCDK9] |  |  |  |  | more than 600 fold |
